≈ marks a conversion by molar mass, not a printed value. Calls of active or inactive are those of the source. The calls are words filed in the database; no cut-off is given here.
Columns and labels:
Human betaherpesvirus 5 = assay: Antiviral activity against human cytomegalovirus; type: functional, organism-based
Tacaribe virus = assay: Antiviral activity against Tacaribe virus infected in African green monkey Vero cells assessed as reduction in virus induced cytopathic effect; type: functional, organism-based; conditions: Mammarenavirus tacaribeense
[1] = system: Japanese encephalitis virus; assay: Antiviral activity against Japanese encephalitis virus; type: functional, organism-based
H1N1 subtype = assay: Antiviral activity against Influenza A virus (H1N1); type: functional
Pichinde virus = assay: Antiviral activity against Pichinde virus infected in African green monkey Vero cells assessed as reduction in virus induced cytopathic effect; type: functional, organism-based
Junin virus = assay: Antiviral activity against Junin virus; type: functional, organism-based; conditions: Mammarenavirus juninense
Chikungunya virus = assay: Antiviral activity against Chikungunya virus; type: functional, organism-based
Human adenovirus 5 = assay: Antiviral activity against Human adenovirus 5; type: functional, organism-based
Ebolavirus = assay: Antiviral activity against Ebolavirus infected in African green monkey Vero cells by immunofluorescent assay; type: functional, organism-based; conditions: for EC50: Orthoebolavirus
[2] = Cytotoxicity against African green monkey Vero cells; type: cell-based; conditions: chlorocebus sabaeus
Lassa virus = assay: Antiviral activity against Lassa virus; type: functional, organism-based; conditions: Mammarenavirus lassaense
[3] = system: Venezuelan equine encephalitis virus; assay: Antiviral activity against Venezuelan equine encephalitis virus; type: functional, organism-based
West Nile virus = assay: Antiviral activity against West Nile virus; type: functional, organism-based
Yellow fever virus = assay: Antiviral activity against Yellow fever virus; type: functional, organism-based
Rift Valley fever virus = assay: Antiviral activity against Rift Valley fever virus; type: functional, organism-based
Punta Toro virus = assay: Antiviral activity against Punta Toro virus; type: functional, organism-based
Zika virus = assay: Antiviral activity against Zika virus; type: functional, organism-based

| SMILES | Activity (Human betaherpesvirus 5) | EC50 (Tacaribe virus) [µg/mL] | Activity [1] | Activity (H1N1 subtype) | EC50 (Pichinde virus) [µg/mL] | Activity (Junin virus) | Activity (Chikungunya virus) | Activity (Human adenovirus 5) | EC50 (Ebolavirus) [µg/mL] | CC50 [2] [µg/mL] | Activity (Lassa virus) | Activity [3] | Activity (Tacaribe virus) | Activity (West Nile virus) | Activity (Yellow fever virus) | Activity (Pichinde virus) | Activity (Rift Valley fever virus) | Activity (Punta Toro virus) | Activity (Ebolavirus) | Activity (Zika virus) |
| --- | --- | --- | --- | --- | --- | --- | --- | --- | --- | --- | --- | --- | --- | --- | --- | --- | --- | --- | --- | --- |
| Nc1ncc(Br)c2c1ncn2[C@H]1C=C(CO)[C@H](O)[C@@H]1O | inactive | > 100 | inactive | inactive | > 100 | inactive | inactive | inactive | 4.2 (≈ 12.3 µM) | 83 to 100 (≈ 243 to 293 µM) | inactive |  |  |  |  |  |  |  |  |  |
| NC(=O)c1ncn([C@@H]2O[C@H](CO)[C@@H](O)[C@H]2O)n1 [RIBAVIRIN] |  | 9.3 (≈ 38.1 µM) |  |  | 12 (≈ 49.1 µM) |  |  |  |  |  |  |  |  |  |  |  |  |  |  |  |
| NC(=O)c1nc(F)cnc1O [FAVIPIRAVIR] |  |  |  |  |  |  |  |  | 18.6 (≈ 118 µM) |  |  |  |  |  |  |  |  |  |  |  |
| Nc1nccc2c1ncn2[C@H]1C=C(CO)[C@H](O)[C@@H]1O | inactive | 1.3 (≈ 4.96 µM) | inactive | inactive | 0.9 (≈ 3.43 µM) | inactive | inactive | inactive | 8.7 (≈ 33.2 µM) | 12 to 85 (≈ 45.8 to 324 µM) | inactive |  |  |  |  |  |  |  |  |  |
| Nc1nccc2c1ncn2[C@H]1C=C(CF)[C@H](O)[C@@H]1O | inactive |  | inactive | inactive |  | inactive | inactive | inactive |  |  | inactive | inactive | inactive | inactive | inactive | inactive | inactive | inactive | inactive | inactive |

From ChEMBL document CHEMBL4396935, “l-like 3-deazaneplanocin analogues: Synthesis and antiviral properties” (Bioorg Med Chem Lett, 2019)
